Experimental data from ChEMBL document CHEMBL6120961, “Design, Synthesis, and Biological Evaluation of Covalently Mucoadhesive Derivatives as Nonsystemic Intestine-Targeted TGR5 Agonists” (J Med Chem, 2024).
One block for each molecule: values may come before it. Active and inactive are the calls of the source. The rule behind the calls is not given here.

How the values were obtained:
[1] = biological target: T1, G-protein coupled bile acid receptor 1 (Homo sapiens, UniProt Q8TDU6); experiment: Agonist activity at human TGR5 expressed in HEK293T cells assessed as cAMP production incubated for 30 mins by HTRF assay; assay type: functional, cell-based
T1 sequence (Q8TDU6 whole entry): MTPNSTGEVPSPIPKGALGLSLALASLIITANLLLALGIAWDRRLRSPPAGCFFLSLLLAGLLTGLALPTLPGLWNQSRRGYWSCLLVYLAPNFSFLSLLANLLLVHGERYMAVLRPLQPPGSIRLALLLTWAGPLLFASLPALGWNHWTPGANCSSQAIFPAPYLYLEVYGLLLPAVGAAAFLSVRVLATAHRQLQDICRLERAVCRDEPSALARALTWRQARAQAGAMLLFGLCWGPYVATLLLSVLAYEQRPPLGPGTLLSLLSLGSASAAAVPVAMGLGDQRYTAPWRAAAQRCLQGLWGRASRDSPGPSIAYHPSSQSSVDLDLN

[2] = biological target: T2, G-protein coupled bile acid receptor 1 (Mus musculus, UniProt Q80SS6); experiment: Agonist activity at mouse TGR5 expressed in HEK293T cells assessed as cAMP production incubated for 30 mins by HTRF assay; assay type: cell-based
T2 sequence (Q80SS6 whole entry): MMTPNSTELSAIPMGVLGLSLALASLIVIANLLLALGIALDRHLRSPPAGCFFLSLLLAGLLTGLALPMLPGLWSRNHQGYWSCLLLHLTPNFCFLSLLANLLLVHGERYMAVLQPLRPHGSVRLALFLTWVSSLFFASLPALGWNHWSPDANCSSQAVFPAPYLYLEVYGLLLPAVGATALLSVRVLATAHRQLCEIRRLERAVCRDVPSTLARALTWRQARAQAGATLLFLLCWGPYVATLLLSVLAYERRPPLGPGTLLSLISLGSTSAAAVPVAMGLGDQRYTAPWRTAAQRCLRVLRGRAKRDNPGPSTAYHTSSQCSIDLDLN

Mus musculus [3] = experiment: (§1) Hypoglycemic activity in overnight fasted C57BL/6 mouse assessed as reduction in blood glucose level at 50 mg/kg, po preadministered with compound for 60 mins followed by first dose of glucose administration for 120 mins and measured after 120 mins of second glucose administration by oral glucose tolerance test; assay type: functional, organism-based; conditions: time 5.0 hrs
[4] = Apparent permeability across apical to basolateral side in human Caco-2 cells assessed as drug recovery at 2 uM incubated for 2 hrs by LC-MS/MS analysis; assay type: ADME, cell-based; conditions: read-out: Drug recovery
[5] = Apparent permeability across apical to basolateral side in human Caco-2 cells at 2 uM incubated for 2 hrs by LC-MS/MS analysis; assay type: ADME, cell-based
[6] = Toxicity in overnight fasted male C57BL/6J mouse assessed as increase in bile weight at 50 mg/kg, po measured after 6 hrs; assay type: organism-based; conditions: in vivo
[7] = Toxicity in overnight fasted male C57BL/6J mouse assessed as increase in gallbladder volume at 50 mg/kg, po measured after 6 hrs; assay type: organism-based; conditions: in vivo
[8] = Acute toxicity in overnight fasted male C57BL/6J mouse model assessed as increase in ALT level in blood at 200 mg/kg, IG administered for 3 days; assay type: organism-based; conditions: in vivo, po, 72 h, time 3 day
[9] = Acute toxicity in overnight fasted male C57BL/6J mouse model assessed as effect on urea level in blood at 50 mg/kg, IG administered for 3 days; assay type: organism-based; conditions: in vivo, po, 72 h, time 3 day
[10] = Apparent permeability across basolateral to apical side in human Caco-2 cells assessed as drug recovery at 2 uM incubated for 2 hrs by LC-MS/MS analysis; assay type: ADME, cell-based; conditions: read-out: Drug recovery
Rattus norvegicus = species on record: Rattus norvegicus; experiment: Muco-adhesive activity in rat intestine assessed as disappearance of peak at 9.793 retention time incubated for 2 hrs by HPLC analysis; assay type: functional
Mus musculus [11] = experiment: as §1, with “AUC (0 to 120 min)” for “level”, “test relative to control” for “test”; assay type: functional; set-up: scale not given: the % may be the effect or the level left; conditions: time 5 hrs
[12] = Acute toxicity in overnight fasted male C57BL/6J mouse model assessed as effect on uric acid level in blood at 50 mg/kg, IG administered for 3 days; assay type: organism-based; conditions: in vivo, po, 72 h, time 3 day
Mus musculus [13] = experiment: Insulin sensitizing activity in over-night fasted male C57BL/6J mouse model assessed as reduction in plasma glucose AUC level at 50 mg/kg, po preadministered with compound for 60 mins followed by insulin administration and measured after 120 mins by insulin tolerance test; assay type: functional, organism-based; conditions: time 180.0 min
Mus musculus [14] = experiment: Induction of GLP-1 secretion in TGR5-/- mouse model at 50 mg/kg, po preadministered with vildagliptin for 1 hrs followed by compound administration and measured after 4 hrs; assay type: functional, organism-based
[15] = Acute toxicity in overnight fasted male C57BL/6J mouse model assessed as effect on ALT level in blood at 50 mg/kg, IG administered for 3 days; assay type: organism-based; conditions: in vivo, po, 72 h, time 3 day
[16] = Toxicity in overnight fasted male C57BL/6J mouse assessed as increase in bile weight at 50 mg/kg, iv measured after 2 hrs; assay type: organism-based; conditions: in vivo
[17] = Acute toxicity in overnight fasted male C57BL/6J mouse model assessed as increase in AST level in blood at 200 mg/kg, IG administered for 3 days; assay type: organism-based; conditions: in vivo, po, 72 h, time 3 day
[18] = Acute toxicity in overnight fasted male C57BL/6J mouse model assessed as effect on […] level in blood at 50 mg/kg, IG administered for 3 days; assay type: organism-based; conditions: in vivo, po, 72 h, time 3 day
Mus musculus [19] = experiment: Hypoglycemic activity in non-fasted diabetic db/db mouse model assessed as decrease in plasma HbA1c level at 50 mg/kg, IG administered once daily for 28 days by glycosylated hemoglobin (GHb) assay; assay type: functional, organism-based; conditions: time 28.0 day
Mus musculus [20] = experiment: Hypoglycemic activity in diet-induced obese mouse model assessed as reduction in blood glucose AUC (0 to 12 days) level at 50 mg/kg, po administered every day and measured after 12 days relative to control; assay type: functional; set-up: scale not given: the % may be the effect or the level left; conditions: time 12 day
[21] = Acute toxicity in overnight fasted male C57BL/6J mouse model assessed as effect on ALP level in blood at 50 mg/kg, IG administered for 3 days; assay type: organism-based; conditions: in vivo, po, 72 h, time 3 day
[22] = biological target: T3, G-protein coupled bile acid receptor 1 (Homo sapiens) (UniProt Q8TDU6); experiment: Agonist activity at TGR5 in human NCI-H716 cells assessed as increase in GLP-1 secretion at 10 uM preincubated with vildagliptin followed by compound addition and measured after 2 hrs by GLP-1(7 to 36) ELISA; assay type: functional, cell-based; conditions: filed as agonist
T3 sequence (whole entry): T1 sequence (Q8TDU6 whole entry)

Mus musculus [23] = experiment: Hypoglycemic activity in diet-induced obese mouse model assessed as reduction in blood glucose level at 50 mg/kg, po administered every day and measured after 4 to 8 days; assay type: functional, organism-based; conditions: time 4-8 day
Mus musculus [24] = experiment: Hypoglycemic activity in TGR5-/- mouse model assessed as reduction in blood glucose level at 50 mg/kg, po preadministered with compound for 60 mins followed by glucose administration and measured after 120 mins by oral glucose tolerance test; assay type: functional, organism-based; conditions: time 180.0 min
[25] = Acute toxicity in overnight fasted male C57BL/6J mouse model assessed as increase in serum uric acid level at 200 mg/kg, IG administered for 3 days; assay type: organism-based; conditions: in vivo, po, 72 h, time 3 day
[26] = Acute toxicity in overnight fasted male C57BL/6J mouse model assessed as effect on LDH level in blood at 50 mg/kg, IG administered for 3 days; assay type: organism-based; conditions: in vivo, po, 72 h, time 3 day
Homo sapiens = species on record: Homo sapiens; experiment: Binding affinity to mucin (unknown origin) assessed as disappearance of peak at 9.793 retention time incubated for 2 hrs by HPLC analysis
[27] = Acute toxicity in overnight fasted male C57BL/6J mouse model assessed as behavioral abnormalities at 50 to 200 mg/kg, IG administered for 3 days; assay type: organism-based; conditions: in vivo, po, 72 h, dose 50-200 mg/kg, time 3 day
Mus musculus [28] = experiment: as §1, with “AUC (180 to 300 min)” for “level”, “test relative to control” for “test”; assay type: functional; set-up: scale not given: the % may be the effect or the level left; conditions: time 5 hrs
Mus musculus [29] = experiment: In vivo agonist activity at TGR5 in wildtype C57BL/6J mouse assessed as increase in GLP-1 secretion in blood at 50 mg/kg, po preadministered with vildagliptin for 1 hrs followed by compound administration and measured after 4 hrs; assay type: functional, organism-based
[30] = Acute toxicity in overnight fasted male C57BL/6J mouse model assessed as effect on AST level in blood at 50 mg/kg, IG administered for 3 days; assay type: organism-based; conditions: in vivo, po, 72 h, time 3 day
[31] = Acute toxicity in overnight fasted male C57BL/6J mouse model assessed as effect on total protein level in blood at 50 mg/kg, IG administered for 3 days; assay type: organism-based; conditions: in vivo, po, 72 h, time 3 day
[32] = Apparent permeability across basolateral to apical side in human Caco-2 cells at 2 uM incubated for 2 hrs by LC-MS/MS analysis; assay type: ADME, cell-based
[33] = Acute toxicity in overnight fasted male C57BL/6J mouse model assessed as histopathological change in liver at 50 to 200 mg/kg, IG administered for 3 days by H and E staining based analysis; assay type: organism-based; conditions: in vivo, po, 72 h, dose 50-200 mg/kg, time 3 day
[34] = Toxicity in overnight fasted male C57BL/6J mouse assessed as increase in gallbladder volume at 50 mg/kg, iv measured after 2 hrs; assay type: organism-based; conditions: in vivo
[35] = Apparent permeability across apical to basolateral side in human Caco-2 cells at 10 uM incubated for 2 hrs by LC-MS/MS analysis
[36] = Apparent permeability across basolateral to apical side in human Caco-2 cells assessed as drug recovery at 10 uM incubated for 2 hrs by LC-MS/MS analysis
[37] = Apparent permeability across apical to basolateral side in human Caco-2 cells assessed as drug recovery at 10 uM incubated for 2 hrs by LC-MS/MS analysis
[38] = Efflux ratio of apparent permeability across basolateral to apical over apical to basolateral side in human Caco-2 cells at 10 uM incubated for 2 hrs by LC-MS/MS analysis
[39] = Apparent permeability across basolateral to apical side in human Caco-2 cells at 10 uM incubated for 2 hrs by LC-MS/MS analysis

SMILES: O=C(c1cnccc1Oc1cc(Cl)ccc1Cl)N1CCN(C2CC2)c2ccccc21
- Activity [6]: Toxic
- Activity [7]: Toxic

SMILES: O=C(CCCCCN1C(=O)C=CC1=O)NCCCCCCNC(=O)CCc1cc(Cl)c(Oc2ccncc2C(=O)N2CCN(C3CC3)c3ccccc32)cc1Cl
- Activity [8]: Toxic
- Activity [9]: Non-toxic
- EC50 [1]: 166 nM
- recovery at 2 h, 2 µM [10]: < 22.8%
- Activity (Rattus norvegicus): Active
- Activity (Mus musculus [11]): 19.5%
- Activity [12]: Non-toxic
- Activity (Mus musculus [13]): Active
- Activity (Mus musculus [14]): inactive
- EC50 [2]: 138 nM
- Activity [15]: Non-toxic
- Activity [16]: Toxic
- Activity [17]: Toxic
- Activity [18]: Non-toxic
- Activity (Mus musculus [19]): Active
- Activity (Mus musculus [20]): 10.4%
- Activity (Mus musculus [3]): Active
- Activity [6]: Non-toxic
- Activity [21]: Non-toxic
- Activity [22]: Active
- recovery at 2 h, 2 µM [4]: < 1.1%
- Activity (Mus musculus [23]): Active
- Activity (Mus musculus [24]): inactive
- Papp A→B at 2 h, 2 µM [5]: < 0.48 ×10⁻⁶ cm/s
- Activity [25]: Toxic
- Activity [26]: Non-toxic
- Activity (Homo sapiens): Active
- Activity [7]: Non-toxic
- Activity [27]: Non-toxic
- Activity (Mus musculus [28]): 15.9%
- Activity (Mus musculus [29]): Active
- Activity [30]: Non-toxic
- Activity [31]: Non-toxic
- Papp B→A at 2 h, 2 µM [32]: < 0.432 ×10⁻⁶ cm/s
- Activity [33]: Non-toxic
- Activity [34]: Toxic

SMILES: C[C@H]1O[C@@H](O[C@H]2[C@@H](O)C[C@H](O[C@H]3[C@@H](O)C[C@H](O[C@H]4CC[C@@]5(C)[C@H](CC[C@@H]6[C@@H]5C[C@@H](O)[C@]5(C)[C@@H](C7=CC(=O)OC7)CC[C@]65O)C4)O[C@@H]3C)O[C@@H]2C)C[C@H](O)[C@@H]1O [DIGOXIN]
- Papp A→B at 2 h, 10 µM [35]: 0.024 ×10⁻⁶ cm/s
- recovery at 2 h, 10 µM [36]: 103%
- recovery at 2 h, 10 µM [37]: 102%
- efflux ratio at 2 h, 10 µM [38]: 535
- Papp B→A at 2 h, 10 µM [39]: 13.1 ×10⁻⁶ cm/s

Further lines, with some results ahead:

- EC50 [1]: 200 nM
- EC50 [2]: 835 nM
SMILES: O=C(CCCCCN1C(=O)C=CC1=O)NCCCCNC(=O)CCc1cc(Cl)c(Oc2ccncc2C(=O)N2CCN(C3CC3)c3ccccc32)cc1Cl
- Activity (Mus musculus [3]): inactive

- EC50 [1]: 355 nM
- EC50 [2]: 400 nM
SMILES: O=C(CCCCCN1C(=O)C=CC1=O)NCCCCCCCCNC(=O)CCc1cc(Cl)c(Oc2ccncc2C(=O)N2CCN(C3CC3)c3ccccc32)cc1Cl
- Activity (Mus musculus [3]): inactive

- recovery at 2 h, 2 µM [4]: 104%
- Papp A→B at 2 h, 2 µM [5]: 18.8 ×10⁻⁶ cm/s
SMILES: COCCc1ccc(OCC(O)CNC(C)C)cc1 (configuration not stated) [METOPROLOL]

- recovery at 2 h, 2 µM [4]: 102%
SMILES: CC(C)(C)NCC(O)COc1cccc2c1CC(O)C(O)C2 (configuration not stated) [NADOLOL]
